Results from patent publication EP4273147A1, “SUBSTITUTED SPIROLACTAMS, SALTS THEREOF AND THEIR USE AS HERBICIDALLY ACTIVE SUBSTANCES” (Bayer Aktiengesellschaft, priority 2022, dated 2023).

Legend:
SETVI = assay: Herbicidal pre-emergence action (Table A5); assay type: in vivo, Setaria viridis; details: visual grading after ca. 3 weeks
Source text: (§1) Seeds of mono- and dicotyledonous weed plants were sown in plastic pots (double sowings with one species of mono- and one species of dicotyledonous weed plants per pot), in sandy loam, and covered with soil.

POAAN [1] = assay: Herbicidal pre-emergence action (Table A7); assay type: in vivo, Poa annua; details: visual grading after ca. 3 weeks; for pest or weed control at 1280 g/ha: Poa annua, pre-emergence, 504 h, read-out: pre-emergence activity against POAAN
Source text: as §1

ECHCG [2] = assay: Herbicidal pre-emergence action (Table A2); assay type: in vivo, Echinochloa crus-galli; details: visual grading after ca. 3 weeks
Source text: as §1

LOLRI = assay: Herbicidal pre-emergence action (Table A3); assay type: in vivo, Lolium rigidum; details: visual grading after ca. 3 weeks
Source text: as §1

STEME = assay: Herbicidal pre-emergence action (Table A6); assay type: in vivo, Stellaria media; details: visual grading after ca. 3 weeks
Source text: as §1

DIGSA = assay: Herbicidal pre-emergence action (Table A12); assay type: in vivo, Digitaria sanguinalis; details: visual grading after ca. 3 weeks
Source text: as §1

POAAN [3] = assay: Herbicidal post-emergence action (Table B7); assay type: in vivo, Poa annua
Protocol: (§2) Seeds of mono- and dicotyledonous weed plants were placed in plastic pots in sandy loam soil (doubly sown with in each case one species of mono- or dicotyledonous weed plants per pot), covered with soil and cultivated in a greenhouse under controlled growth conditions. 2 to 3 weeks after sowing, the test plants were treated at the one-leaf stage. […] After the test plants had been kept in the greenhouse under optimum growth conditions for about 3 weeks, the activity of the preparations was rated visually in comparison to untreated controls. For example, 100% activity = the plants have died, 0% activity = like control plants.

ECHCG [4] = assay: Herbicidal post-emergence action (Table B3); assay type: in vivo, Echinochloa crus-galli; details: application rate 1280 g/ha; rated visually after about 3 weeks
Protocol: as §2

MATIN = assay: Herbicidal pre-emergence action (Table A4); assay type: in vivo, Matricaria inodora; details: visual grading after ca. 3 weeks
Source text: as §1

KCHSC = assay: Herbicidal pre-emergence action (Table A10); assay type: in vivo, Kochia scoparia; details: visual grading after ca. 3 weeks
Source text: as §1

ECHCG [5] = assay: Herbicidal pre-emergence action, section C (Table C6); assay type: in vivo, Echinochloa crus-galli; details: application rate 320 g/ha; visual grading after ca. 3 weeks
VIOTR = assay: Herbicidal pre-emergence action, section C (Table C12); assay type: in vivo, Viola tricolor; details: application rate 320 g/ha; visual grading after ca. 3 weeks
ALOMY = assay: Herbicidal pre-emergence action (Table A9); assay type: in vivo, Alopecurus myosuroides; details: application rate 1280 g/ha; visual grading after ca. 3 weeks
Source text: as §1

VERPE = assay: Herbicidal pre-emergence action (Table A11); assay type: in vivo, Veronica persica; details: application rate 1280 g/ha; visual grading after ca. 3 weeks
Source text: as §1

Row | Compound | pre-emergence activity against SETVI (SETVI; application rate 1280 g/ha) [%] | pre-emergence activity against POAAN (POAAN [1]; application rate 320 g/ha) [%] | pre-emergence activity against ECHCG (ECHCG [2]; application rate 1280 g/ha) [%] | pre-emergence activity against STEME (STEME; application rate 1280 g/ha) [%] | pre-emergence activity against POAAN (POAAN [1]; application rate 1280 g/ha) [%] | other results
1 | O=C1N(Cc2ccccc2C(F)F)CCCC12CCCN(Cc1ccccc1C(F)F)C2=O (racemic) [I-067] | 100 | 100 | – | – | – | –
2 | O=C1N(Cc2cnc(Br)s2)CCCC12CCCN(Cc1cnc(Br)s1)C2=O (racemic) [I-204, 2,8-bis[(2-bromo-1,3-thiazol-5-yl)methyl]-2,8-diazaspiro[5.5]undecane-1,7-dione] | – | – | 100 | – | – | pest or weed control at 1280 g/ha (LOLRI; Lolium rigidum, pre-emergence, 504 h, application rate 1280 g/ha, read-out: pre-emergence activity against LOLRI): 90%; pest or weed control at 1280 g/ha (POAAN [1]; application rate 1280 g/ha): 100%
3 | O=C1N(Cc2ccsc2Br)CCCC12CCCN(Cc1ccsc1Br)C2=O (racemic) [I-216, 2,8-bis[(2-bromothien-3-yl)methyl]-2,8-diazaspiro[5.5]undecane-1,7-dione] | – | – | – | – | – | pest or weed control at 1280 g/ha (POAAN [1]; application rate 1280 g/ha): 90%
4 | O=C1N(Cc2cnc(Br)s2)CCCC12CCCN(Cc1cnc(Br)s1)C2=O (single isomer, unassigned; (-)) [I-206, (-)-2,8-bis[(2-bromo-1,3-thiazol-5-yl)methyl]-2,8-diazaspiro[5.5]undecane-1,7-dione] | 100 | 100 | 100 | 90 | – | pre-emergence activity against LOLRI (LOLRI; application rate 1280 g/ha): 90%; pre-emergence activity against DIGSA (DIGSA; application rate 1280 g/ha): 90%
5 | CCc1cc(CN2CCCC3(CCCN(Cc4cc(CC)no4)C3=O)C2=O)on1 (racemic) [I-100] | – | – | 100 | – | – | pre-emergence activity against LOLRI (LOLRI; application rate 1280 g/ha): 100%
6 | O=C1N(Cc2ccsc2)CCCC12CCCN(Cc1ccccc1Cl)C2=O (racemic) [I-099] | 100 | – | 100 | – | – | pre-emergence activity against LOLRI (LOLRI; application rate 1280 g/ha): 100%
7 | N#Cc1ccccc1CN1CCCC2(CCCN(Cc3ccccc3C#N)C2=O)C1=O (racemic) [I-094] | 90 | – | – | – | 100 | –
8 | O=C1N(Cc2c(F)cccc2F)CCCC12CCCN(CC1CCCCC1)C2=O (racemic) [I-034] | – | 100 | 90 | 100 | – | pre-emergence activity against LOLRI (LOLRI; application rate 1280 g/ha): 100%; pre-emergence activity against SETVI (SETVI; application rate 320 g/ha): 90%; pre-emergence activity against DIGSA (DIGSA; application rate 1280 g/ha): 100%; post-emergence activity against POAAN (POAAN [3]; application rate 1280 g/ha): 90%
9 | O=C1N(Cc2cc(Cl)cnc2Cl)CCCC12CCCN(Cc1cc(Cl)cnc1Cl)C2=O (racemic) [I-117] | 100 | – | – | – | 100 | –
10 | O=C1N(Cc2ccccc2Cl)CCC12CCCN(Cc1cccc(F)c1F)C2=O (racemic) [I-049] | – | 100 | 100 | 90 | – | pre-emergence activity against LOLRI (LOLRI; application rate 320 g/ha): 90%; pre-emergence activity against SETVI (SETVI; application rate 320 g/ha): 100%; pre-emergence activity against DIGSA (DIGSA; application rate 320 g/ha): 90%; post-emergence activity against ECHCG (ECHCG [4]): 90%
11 | O=C1N(Cc2ccsc2)CCCC12CCCN(Cc1ccccc1F)C2=O (racemic) [I-104] | – | 100 | – | – | – | pre-emergence activity against ECHCG (ECHCG [2]; application rate 320 g/ha): 90%; pre-emergence activity against MATIN (MATIN; application rate 320 g/ha): 90%; pre-emergence activity against SETVI (SETVI; application rate 320 g/ha): 90%
12 | COc1ccccc1CN1CCCC2(CCCN(c3ccccc3)C2=O)C1=O (racemic) [I-102] | 90 | – | 90 | 90 | 90 | –
13 | Cc1ccccc1CN1CCCC2(CCN(Cc3c(F)cccc3F)C2=O)C1=O (racemic) [I-077] | 100 | 100 | – | 90 | – | pre-emergence activity against LOLRI (LOLRI; application rate 320 g/ha): 100%; pre-emergence activity against DIGSA (DIGSA; application rate 320 g/ha): 90%
14 | Cc1cc(CN2CCCC3(CCCN(Cc4cc(C)no4)C3=O)C2=O)on1 (racemic) [I-195, 2,8-bis[(3-methyl-1,2-oxazol-5-yl)methyl]-2,8-diazaspiro[5.5]undecane-1,7-dione] | – | – | – | – | – | pest or weed control at 1280 g/ha (POAAN [1]; application rate 1280 g/ha): 100%
15 | Cc1ccccc1CN1CCC2(CCCN(Cc3ccccc3F)C2=O)C1=O (racemic) [I-088] | 90 | 100 | – | 90 | – | pre-emergence activity against LOLRI (LOLRI; application rate 1280 g/ha): 100%; pre-emergence activity against KCHSC (KCHSC; application rate 320 g/ha): 90%; pre-emergence activity against DIGSA (DIGSA; application rate 320 g/ha): 90%
16 | O=C1N(Cc2ccccc2)CCCC12CCN(Cc1ccccc1F)C2=O (racemic) [I-059] | – | 100 | – | 90 | – | pre-emergence activity against ECHCG (ECHCG [2]; application rate 320 g/ha): 100%; pre-emergence activity against LOLRI (LOLRI; application rate 1280 g/ha): 100%; pre-emergence activity against MATIN (MATIN; application rate 1280 g/ha): 90%; pre-emergence activity against SETVI (SETVI; application rate 320 g/ha): 100%; pre-emergence activity against KCHSC (KCHSC; application rate 1280 g/ha): 90%; pre-emergence activity against DIGSA (DIGSA; application rate 320 g/ha): 90%; post-emergence activity against ECHCG (ECHCG [4]): 90%; post-emergence activity against POAAN (POAAN [3]; application rate 1280 g/ha): 90%
17 | O=C1N(Cc2cc(F)c(F)cc2F)CCCC12CCCN(Cc1cc(F)c(F)cc1F)C2=O (single isomer, unassigned; (-)) [I-214, (-)-2,8-bis(2,4,5-trifluorophenylmethyl)-2,8-diazaspiro[5.5]undecane-1,7-dione] | – | – | – | – | – | pre-emergence activity against ECHCG (ECHCG [5]): 100%; pre-emergence activity against VIOTR (VIOTR): 80%
18 | O=C1N(Cc2ccc(F)cc2Cl)CCCC12CCCN(Cc1ccc(F)cc1Cl)C2=O (racemic) [I-070] | – | – | – | 90 | 100 | –
19 | O=C1N(Cc2cscc2Br)CCCC12CCCN(Cc1cscc1Br)C2=O (racemic) [I-186, 2,8-bis[(4-bromothiophen-3-yl)methyl]-2,8-diazaspiro[5.5]undecane-1,7-dione] | – | – | – | – | – | pre-emergence activity against KCHSC (KCHSC; application rate 1280 g/ha): 90%; pre-emergence activity against DIGSA (DIGSA; application rate 1280 g/ha): 90%
20 | O=C1N(Cc2ccsc2)CCCC12CCCN(Cc1c(F)cccc1F)C2=O (racemic) [I-075] | – | – | – | 100 | 100 | pre-emergence activity against ECHCG (ECHCG [2]; application rate 320 g/ha): 100%; pre-emergence activity against LOLRI (LOLRI; application rate 320 g/ha): 100%; pre-emergence activity against MATIN (MATIN; application rate 1280 g/ha): 90%; pre-emergence activity against SETVI (SETVI; application rate 320 g/ha): 90%; pre-emergence activity against ALOMY (ALOMY): 90%; post-emergence activity against ECHCG (ECHCG [4]): 90%; post-emergence activity against POAAN (POAAN [3]; application rate 1280 g/ha): 90%
21 | O=C1N(Cc2ccccc2Br)CCCC12CCCN(Cc1ccccc1Br)C2=O (racemic) [I-064] | 90 | – | 90 | – | 100 | post-emergence activity against POAAN (POAAN [3]; application rate 1280 g/ha): 100%
22 | O=C1N(Cc2c(F)ccc(F)c2Cl)CCCC12CCCN(Cc1c(F)ccc(F)c1Cl)C2=O (racemic) [I-078] | – | – | – | – | 100 | pre-emergence activity against STEME (STEME; application rate 320 g/ha): 90%
23 | Cc1ccccc1CN1CCC2(CCCN(Cc3cccc(F)c3F)C2=O)C1=O (racemic) [I-080] | 100 | 100 | 100 | 90 | – | pre-emergence activity against LOLRI (LOLRI; application rate 1280 g/ha): 90%; pre-emergence activity against KCHSC (KCHSC; application rate 1280 g/ha): 100%; pre-emergence activity against DIGSA (DIGSA; application rate 1280 g/ha): 100%
24 | Cc1ccccc1CN1CCCC2(CCCN(Cc3cccs3)C2=O)C1=O (racemic) [I-043] | 100 | 100 | – | 90 | – | pre-emergence activity against ECHCG (ECHCG [2]; application rate 320 g/ha): 100%; post-emergence activity against ECHCG (ECHCG [4]): 90%; post-emergence activity against POAAN (POAAN [3]; application rate 320 g/ha): 90%
25 | O=C1N(Cc2c(F)cccc2C(F)(F)F)CCCC12CCCN(Cc1c(F)cccc1C(F)(F)F)C2=O (racemic) [I-041] | – | – | – | – | 90 | pre-emergence activity against STEME (STEME; application rate 320 g/ha): 100%
26 | COc1cccc(F)c1CN1CCCC2(CCCN(Cc3c(F)cccc3OC)C2=O)C1=O (racemic) [I-033] | – | 100 | – | 100 | – | pre-emergence activity against ALOMY (ALOMY): 90%; pre-emergence activity against VERPE (VERPE): 90%; pre-emergence activity against DIGSA (DIGSA; application rate 1280 g/ha): 100%
27 | Cc1ccccc1CN1CCCC2(CCN(Cc3cccc(F)c3F)C2=O)C1=O (racemic) [I-081] | 100 | 100 | – | 90 | – | pre-emergence activity against LOLRI (LOLRI; application rate 1280 g/ha): 90%; pre-emergence activity against MATIN (MATIN; application rate 1280 g/ha): 90%; pre-emergence activity against DIGSA (DIGSA; application rate 320 g/ha): 90%
28 | Cc1ccccc1CN1CCCC2(CCN(Cc3ccccc3F)C2=O)C1=O (racemic) [I-086] | 90 | – | 100 | – | 100 | pre-emergence activity against DIGSA (DIGSA; application rate 1280 g/ha): 100%
29 | O=C1N(Cc2c(F)c(F)c(F)c(F)c2F)CCCC12CCCN(Cc1c(F)c(F)c(F)c(F)c1F)C2=O (racemic) [I-050] | 100 | – | 100 | 100 | 100 | post-emergence activity against ECHCG (ECHCG [4]): 100%
